Measurements published in EP1247803A2, “Indolinone compounds suitable for modulation of protein kinases” (Sugen, Inc., priority 1996, dated 1998).

Target: T1, EGFR (Homo sapiens, UniProt P00533)
T1 construct: Add 7 ug A431 cell lysate per well (EGFR source); endogenous in cells; host or cells: A431
Assay: EGFR ELISA assay (in vitro kinase activity, EGFR captured from A431 cell lysate)
Type: biochemical
Parameters: concentration or dose not given beside the values
Method in brief: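 EGFR from A431 lysate was captured on plates coated with anti-EGFR antibody. Compounds were added 30 min before a 5 min phosphorylation with 3 µM ATP/5 mM MnCl2, which was stopped with 20 mM EDTA. Phosphotyrosine was detected with rabbit anti-phosphotyrosine, then a peroxidase-conjugated secondary and ABTS/H2O2, read at 410 nm.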

T1 sequence (P00533 25-1210): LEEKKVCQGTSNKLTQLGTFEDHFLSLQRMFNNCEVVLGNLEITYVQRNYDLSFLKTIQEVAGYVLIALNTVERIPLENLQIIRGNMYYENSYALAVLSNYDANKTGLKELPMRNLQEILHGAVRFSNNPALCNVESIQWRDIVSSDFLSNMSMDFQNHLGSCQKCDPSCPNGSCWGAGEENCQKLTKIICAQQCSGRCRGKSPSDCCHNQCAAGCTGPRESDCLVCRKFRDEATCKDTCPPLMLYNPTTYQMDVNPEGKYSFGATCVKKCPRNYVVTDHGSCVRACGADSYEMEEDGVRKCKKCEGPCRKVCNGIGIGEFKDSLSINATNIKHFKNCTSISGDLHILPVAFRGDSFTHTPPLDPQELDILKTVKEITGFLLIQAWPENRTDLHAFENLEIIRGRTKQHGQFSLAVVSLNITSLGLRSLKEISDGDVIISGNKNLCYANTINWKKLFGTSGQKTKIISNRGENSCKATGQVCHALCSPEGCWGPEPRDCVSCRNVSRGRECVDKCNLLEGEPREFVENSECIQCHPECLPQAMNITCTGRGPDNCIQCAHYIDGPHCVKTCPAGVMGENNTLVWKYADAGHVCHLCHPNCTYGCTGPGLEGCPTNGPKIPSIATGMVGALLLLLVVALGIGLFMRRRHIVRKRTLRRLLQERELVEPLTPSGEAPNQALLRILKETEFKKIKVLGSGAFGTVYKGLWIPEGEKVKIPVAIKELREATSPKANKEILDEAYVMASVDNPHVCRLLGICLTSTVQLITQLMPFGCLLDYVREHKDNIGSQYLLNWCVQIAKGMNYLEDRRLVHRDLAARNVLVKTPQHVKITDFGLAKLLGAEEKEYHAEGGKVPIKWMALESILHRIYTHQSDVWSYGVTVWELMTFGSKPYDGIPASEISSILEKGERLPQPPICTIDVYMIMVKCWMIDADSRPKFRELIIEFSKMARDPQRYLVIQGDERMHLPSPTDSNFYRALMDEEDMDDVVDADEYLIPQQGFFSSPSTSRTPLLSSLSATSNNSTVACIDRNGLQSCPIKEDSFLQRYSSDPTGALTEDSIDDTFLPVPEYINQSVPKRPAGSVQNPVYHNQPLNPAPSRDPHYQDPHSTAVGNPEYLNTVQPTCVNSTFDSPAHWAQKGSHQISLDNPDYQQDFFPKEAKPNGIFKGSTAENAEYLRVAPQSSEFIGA

SMILES | Biochem EGFR %Inhibition
CC(C)(C)c1cc(C=C2C(=O)Nc3ccc(S(=O)(=O)Nc4ccc(C(F)(F)F)cc4)cc32)cc(Cl)c1OCc1ccccc1 [10732/E10] | -3.3%
COc1c(I)cc(C=C2C(=O)Nc3ccc(S(=O)(=O)Nc4ccc(C(F)(F)F)cc4)cc32)cc1C(C)(C)C [10732/E11] | -32.2%
CC(C)(C)c1cc(C=C2C(=O)Nc3ccc(S(=O)(=O)N4CCOCC4)cc32)cc(Cl)c1OCc1ccccc1 [10732/F10] | 0.8%
COc1c(I)cc(C=C2C(=O)Nc3ccc(CCCl)cc32)cc1C(C)(C)C [10732/G11] | -33.7%
CNS(=O)(=O)c1ccc2c(c1)C(=Cc1cc(Br)cc(OC)c1O)C(=O)N2 [10733/D08] | 38.3%
CNS(=O)(=O)c1ccc2c(c1)C(=Cc1cc(C)c(OCc3ccccc3)c(C)c1)C(=O)N2 [10733/D07] | 37.4%
CC(C)(C)c1cc(C=C2C(=O)Nc3ccc(CCCl)cc32)ccc1OCc1ccccc1 [10732/G06] | -12.1%
Cc1cc(C=C2C(=O)Nc3ccc(Br)c(C)c32)cc(C)c1OCc1ccccc1 [10733/C07] | 16.7%
COc1c(C)cc(C=C2C(=O)Nc3ccc(Br)c(C)c32)cc1C [10733/C06] | 22.7%
COc1ccc(C=C2C(=O)Nc3ccc(S(=O)(=O)N4CCOCC4)cc32)cc1C(C)(C)C [10732/F05] | -30.7%
